Data: patent US7267718B2, “Pullulan film compositions” (Warner-Lambert Company, LLC, priority 2000, dated 2007)

Assay: Pullulan film gliding performance, slanted plane test (smallest gliding angle of film-coated glass plates)
Type: physicochemical
Settings: smaller angle = better
Method: […] The mixture is heated to 70° C. under stirring for complete solubilisation and then the stirring is reduced for defoaming. The solution then is used to cast on glass plates of 4 mm thickness to form pullulan films of about 100 μm thickness after drying at room conditions. The pullulan film gliding performance is evaluated by a test on a slanted plan, a method commonly used by gelatine producers. The method determines the smallest angle of inclination of glass plate to provoke the gliding of a film coated glass plate over another one with films face to face. Consequently, the smaller the gliding angle, the better the film gliding performance.

[1] = surfactant 500 ppm/pullulan, cast pullulan film about 100 μm with kappa-carrageenan and potassium acetate
[2] = surfactant 1000 ppm, cast pullulan film about 100 μm

Compound	Pullulan gliding performance (°) [1]	Pullulan gliding performance (°) [2]	Pullulan gliding performance (°) (surfactant 5000 ppm, cast pullulan film about 100 μm)
CCCCCCCCCCCCOS(=O)(=O)[O-].[Na+] [SLS, sodium lauryl sulphate]	9 °	5 °	6 °
Polysorbate 20	12 °	12 °	
Polysorbate 80	10 °	9 °	
Sorbitan laurate	10 °	8 °	
Sorbitan oleate	9 °	7 °	
